Data: PubChem BioAssay AID1626 (SRMLSC, 2009)

Tested on: M. tuberculosis H37Rv growth inhibition
Experiment: M. tuberculosis H37Rv growth inhibitors, H37Rv strain (AID 1626)
Conditions: for IC90: measured here: IC90 against H37Rv; for CC50: measured here: Vero cell cytotoxicity

With O=C(CSc1nc2ccc(Cl)cc2[nH]1)Nc1ccc2c(c1)CCC2 the IC50 was 29.8 µM, the IC90 was > 100 µM and the CC50 was > 40 µM.
With Cn1c(C(C#N)C(=O)c2ccco2)nc2ccccc21 (stereo not given) the IC50 was 6.99 µM and the IC90 was > 100 µM.
In the case of COc1ccccc1C(=O)OCC(=O)Nc1ccc(Cl)cn1, the IC50 is reported as 22.6 µM, the IC90 is reported as > 100 µM and the CC50 is reported as > 40 µM.
In the case of Cc1[nH]n(-c2ccc(Cl)cc2)c(=O)c1N=Nc1cccnc1, the IC50 is reported as 3.39 µM, the IC90 is reported as > 100 µM and the CC50 is reported as 36.1 µM.
For OCCN(/C=N/c1nc(-c2ccc(Br)cc2)cs1)CCO, the IC50 was 31.4 µM and the IC90 was > 100 µM.
For CC(C)c1ccc(CNc2nc3nc4c(c(=O)n3[nH]2)CCC4)cc1, the IC50 was 0.464 µM and the IC90 was > 100 µM.
With Clc1ccc(-c2ccc(C=Nc3ccc(N4CCOCC4)cc3)o2)c(Cl)c1 the IC90 was > 100 µM.
Compound Cc1ccccc1NC(=O)/C=C/c1ccc([N+](=O)[O-])s1 has an IC50 of 1.46 µM, an IC90 of 1.92 µM and a CC50 of 18.6 µM.
For CN1CCN(c2oc(COc3ccc(-c4ccccc4)cc3)nc2C#N)CC1, the IC50 was 15.4 µM, the IC90 was 28.7 µM and the CC50 was > 40 µM.
Compound Cc1ccc(C(=O)Nc2nc(C)c(C(=O)Nc3ccc4c(c3)CCC4)s2)cc1 has an IC50 of 2.67 µM, an IC90 of 5.77 µM and a CC50 of 7.56 µM.
With CCOC(=O)COc1ccc(/C=C2/SC(=Nc3ccccc3)N(Cc3cccnc3)C2=O)cc1OC the IC50 was 10.4 µM, the IC90 was > 100 µM and the CC50 was > 40 µM.
Nc1ccccc1Nc1ccccc1 was tested, and the IC50 was < 0.195 µM and the IC90 was 0.973 µM.
With O=C(COC(=O)C1COc2ccccc2O1)NC(=O)Nc1ccc2c(c1)OCCO2 (stereo not given) the IC90 was > 100 µM.
In the case of COc1ccc(Nc2nc(C)c3ccccc3n2)cc1, the CC50 is reported as > 40 µM.
c1ccc(OCc2nn3c(-c4n[nH]c5c4CCC5)nnc3s2)cc1 was tested, and the IC50 was 1.23 µM and the IC90 was 6.8 µM.
For Clc1ccc(-n2nnnc2Sc2ncnc3sccc23)cc1, the IC50 was 63.4 µM, the IC90 was > 100 µM and the CC50 was 10.5 µM.
With CN(C)c1ccc(O)c2c1CC1CC3C(N(C)C)C(=O)C(C(N)=O)=C(O)[C@@]3(O)C(=O)C1=C2O (stereo not given in full) the IC50 was 3.33 µM, the IC90 was 7.59 µM and the CC50 was > 40 µM.
Work on N#Cc1c(N2CCN(C(=O)c3ccco3)CC2)nc(-c2ccccc2)c2c1CCCC2 yielded an IC50 of 9.52 µM, an IC90 of 12.2 µM and a CC50 of 24.1 µM.
Work on O=C(c1ccc([N+](=O)[O-])s1)N1CCN(c2cccc(Cl)c2)CC1 yielded an IC50 of 9.2 µM, an IC90 of 12.8 µM and a CC50 of 31.6 µM.
For CCc1ccc(C2c3[nH]c4ccccc4c3CCN2C(=O)c2cc(C)nn2C)cc1 (stereo not given), the IC50 was 22.2 µM, the IC90 was 31.9 µM and the CC50 was > 40 µM.
With O=C(Nc1ccc(Oc2ccccc2)cc1)C1CC1 the IC50 was 14 µM, the IC90 was > 100 µM and the CC50 was > 40 µM.
With COc1ccc(NC(C#N)c2ccccc2OCc2ccccc2)cc1 (stereo not given) the IC50 was 69.8 µM and the IC90 was > 100 µM.
With CSc1ccc2c(c1)C(N1CCN(C)CC1)Cc1ccccc1S2 (stereo not given) the IC50 was 8.54 µM, the IC90 was 10.9 µM and the CC50 was 20.9 µM.
With COc1ccc(-c2nnc(NC(=O)C3=COCCO3)o2)cc1 the IC50 was 12.7 µM, the IC90 was 19.7 µM and the CC50 was > 40 µM.
In the case of O=C(Nc1nc2ccccc2n1CCN1CCOCC1)c1ccc(Cl)cc1, the IC50 is reported as 26.5 µM, the IC90 is reported as > 100 µM and the CC50 is reported as > 40 µM.
With Cc1ccc(OCc2nnc(SCc3cc(=O)[nH]c4ccccc34)n2-c2ccccc2)cc1 the IC50 was 27.8 µM, the IC90 was > 100 µM and the CC50 was > 40 µM.
With Cc1cc(=O)[nH]c(-n2nc(C)c(Oc3ccccc3O)c2C)n1 the IC50 was 7.72 µM, the IC90 was > 100 µM and the CC50 was > 40 µM.
With O=C(NCCc1nc2ccccc2[nH]1)/C(=C/c1ccc2c(c1)OCO2)NC(=O)c1ccc(Cl)cc1Cl the IC50 was 20.6 µM and the IC90 was 52.9 µM.
Cn1c(O)c(C(=Nc2ccccc2)SCc2ccc(Cl)cc2)c(=O)n(C)c1=O was tested, and the IC50 was 5.61 µM, the IC90 was 6.41 µM and the CC50 was 21.2 µM.
In the case of CCOc1ccc(N2C(=O)/C(=C\c3ccc(OC)c(O)c3)S(=O)(=O)C2c2cccc([N+](=O)[O-])c2)cc1 (stereo not given), the IC90 is reported as > 100 µM.
CCn1c(NC(=O)c2cccs2)nc2ccccc21 was tested, and the IC50 was 5.32 µM and the IC90 was > 100 µM.
In the case of Cc1ccc(Cl)c(OC(=O)c2ccc(N3CCOCC3)c([N+](=O)[O-])c2)c1, the IC50 is reported as 6.6 µM and the IC90 is reported as > 100 µM.
For COc1cc(CNC(C)c2ccccc2)cc(Cl)c1OCC(=O)Nc1ccccc1 (stereo not given), the IC50 was 3.1 µM, the IC90 was 3.39 µM and the CC50 was > 40 µM.
With CCOC(=O)CC(=O)Nc1ccc(C(=O)OCC)cc1 the IC50 was 10 µM and the IC90 was > 100 µM.
With O=C(Nc1ccc(N2CCN(C(=O)c3ccc(Cl)cc3)CC2)cc1)c1ccc([N+](=O)[O-])o1 the IC50 was < 0.195 µM, the IC90 was < 0.195 µM and the CC50 was 0.417 µM.
With Cc1csc(NC(=O)c2cc([N+](=O)[O-])cc([N+](=O)[O-])c2)n1 the IC50 was 11.1 µM, the IC90 was 15.9 µM and the CC50 was > 40 µM.
COc1ccc(NC2(C#N)CCCCC2)cc1 was tested, and the IC90 was > 100 µM.
For COc1ccc(Nc2nc(-c3ccc4c(c3)NC(=O)CO4)cs2)cc1, the IC50 was 10 µM, the IC90 was > 100 µM and the CC50 was > 40 µM.
In the case of COc1cccc(C(=O)Nc2ccc(-c3nc4ccccc4o3)c(O)c2)c1, the IC50 is reported as 8.7 µM, the IC90 is reported as > 100 µM and the CC50 is reported as > 40 µM.
For O=[N+]([O-])c1ccc(/C=N/n2c(CO)nc3ccccc32)s1, the IC50 was 0.523 µM, the IC90 was 1.1 µM and the CC50 was > 40 µM.
